Test systems include ACHN renal; CAKI-1 renal; DMS 114 small cell lung; DMS 273 small cell lung; HT29 colon; KM20L2 colon; LXFL 529 NSCLC; M14 melanoma; MOLT-4 leukemia; NCI-H226 lung; NCI-H522 lung; OVCAR-4 ovarian; SNB-78 CNS; U251 CNS; UO-31 renal; XF 498 CNS; MCF7 breast; MDA-MB-435; NCI/ADR-RES ovarian; HOP-18 NSCLC.
What all share (assay): DTP human tumour cell line panel, 48 h

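Step 1: Grow cells in 96-well plates. Step 2: Expose to compound for 48 hours at 5 concentrations. Step 3: Interpolate endpoints linearly; if unreached, use highest concentration. At the TGI there is no net growth.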

One may read the TGI as the concentration giving total growth inhibition. The low end stands for greater sensitivity of the cells, the high end for lower sensitivity of the cells. Turning to `COC(=O)C(Cc1cc(OC)c(OC)c(OC)c1)(NC(=O)c1ccccc1)P(=O)(OC)OC` (centres undefined), the TGI in the experiment on ACHN renal, in the experiment on CAKI-1 renal, with DMS 114 small cell lung, in the experiment with DMS 273 small cell lung, with HT29 colon and in the experiment with KM20L2 colon was above 100 µM in each case. Besides, the TGI in the experiment with LXFL 529 NSCLC, with M14 melanoma, with MOLT-4 leukemia, in the experiment with NCI-H226 lung, with NCI-H522 lung and in the experiment on OVCAR-4 ovarian was above 100 µM each time. Moreover, the TGI with SNB-78 CNS, with U251 CNS, with UO-31 renal and in the experiment with XF 498 CNS was above 100 µM throughout.

For the molecule `COc1ccc(Nc2cnc3cc(N)ccc3n2)cc1OC`, the TGI in the experiment with ACHN renal, in the experiment on DMS 114 small cell lung, with DMS 273 small cell lung, in the experiment with HT29 colon, with KM20L2 colon and in the experiment with LXFL 529 NSCLC was above 100 µM throughout. The TGI with M14 melanoma, in the experiment with MOLT-4 leukemia, in the experiment on NCI-H226 lung, in the experiment with U251 CNS, in the experiment with UO-31 renal and with XF 498 CNS was above 100 µM throughout.

On to `c1ccc2c(CCNC3=NCCO3)cccc2c1`, for which the TGI with ACHN renal, in the experiment on CAKI-1 renal, in the experiment on HT29 colon, with M14 melanoma, in the experiment with MCF7 breast and in the experiment on MDA-MB-435 was above 10 µM each time. Further, the TGI in the experiment on MOLT-4 leukemia, in the experiment on NCI-H226 lung, with NCI-H522 lung, in the experiment with NCI/ADR-RES ovarian, with OVCAR-4 ovarian and in the experiment with U251 CNS was above 10 µM throughout. The same molecule displayed a TGI with UO-31 renal above 10 µM.

For `Nc1[nH]nc2c1Cc1c(n(Cc3ccc(Cl)cc3)c3ccccc13)C(=O)N2`, the TGI with CAKI-1 renal is 23.5 µM; in the experiment with HT29 colon it was 34.9 µM; in the experiment on M14 melanoma, 26 µM; in the experiment with MCF7 breast, 26.9 µM; in the experiment with MDA-MB-435, 16.5 µM; in the experiment with MOLT-4 leukemia, 29.3 µM. Besides, the TGI with NCI-H226 lung was found to be 44.7 µM; with NCI/ADR-RES ovarian it was 44.6 µM; in the experiment with OVCAR-4 ovarian it was 32 µM; with UO-31 renal, 19.4 µM.

For the molecule `CC(=O)Nc1ccc(C(=O)NN2C(=O)C(Cl)C2/C=C/c2ccccc2)cc1` (centres undefined), the TGI in the experiment with ACHN renal, with HOP-18 NSCLC, in the experiment with HT29 colon, with LXFL 529 NSCLC, with MOLT-4 leukemia and in the experiment on NCI-H226 lung was above 100 µM throughout. Besides, the TGI with NCI-H522 lung, in the experiment with U251 CNS and in the experiment on UO-31 renal was above 100 µM throughout.

As to `O=[N+]([O-])c1cnccc1-n1nnc2ccccc21`, the TGI was 26.6 µM in the experiment with DMS 114 small cell lung; 27.2 µM in the experiment with DMS 273 small cell lung; above 100 µM in the experiment with HOP-18 NSCLC; above 100 µM in the experiment on HT29 colon; above 100 µM in the experiment on KM20L2 colon; 36.5 µM in the experiment on MCF7 breast. For the same molecule, the TGI was above 75.7 µM with MOLT-4 leukemia; 49.8 µM in the experiment with NCI-H226 lung; 38.5 µM with NCI-H522 lung; 63.4 µM with NCI/ADR-RES ovarian; above 60.5 µM in the experiment on OVCAR-4 ovarian; above 100 µM in the experiment with SNB-78 CNS. The TGI was above 81.8 µM in the experiment on U251 CNS, above 86.2 µM in the experiment on UO-31 renal and 27.1 µM with XF 498 CNS.

In the case of `O=C(O)c1cc2sc(C(=O)O)cc2s1`, the TGI with CAKI-1 renal, in the experiment with DMS 114 small cell lung, in the experiment with DMS 273 small cell lung, in the experiment with HT29 colon, with KM20L2 colon and in the experiment on LXFL 529 NSCLC was above 100 µM throughout. The TGI with M14 melanoma, in the experiment with MOLT-4 leukemia, with NCI-H226 lung, in the experiment with NCI-H522 lung, in the experiment with OVCAR-4 ovarian and in the experiment with SNB-78 CNS was above 100 µM in each case. Further, the TGI in the experiment with U251 CNS and with XF 498 CNS was above 100 µM in each case.

As for `CSc1nc(NC2OC(CO)C(O)C(O)C2O)c(N)c(=O)[nH]1` (centres undefined), the TGI in the experiment on DMS 114 small cell lung, in the experiment on DMS 273 small cell lung, with HOP-18 NSCLC, in the experiment on HT29 colon, with KM20L2 colon and with MCF7 breast was above 100 µM throughout. Besides, the TGI with MOLT-4 leukemia, in the experiment with NCI-H226 lung, in the experiment with NCI-H522 lung, in the experiment on NCI/ADR-RES ovarian, with OVCAR-4 ovarian and with SNB-78 CNS was above 100 µM each time. The TGI in the experiment with U251 CNS, with UO-31 renal and in the experiment on XF 498 CNS was above 100 µM in each case.

(Values after PubChem BioAssay (NCI).)
